We go through nine compounds from PubChem BioAssay (NCI).

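Exposure lasted 48 hours, with cells grown in 96-well plates and compounds tested at five concentrations. The concentration for full growth arrest is given as TGI.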

Among the test systems are UACC-257 melanoma; MDA-MB-435; HT29 colon; MDA-MB-231 breast; NCI-H460 lung; OVCAR-4 ovarian; SNB-19 CNS; SW-620 colon; OVCAR-3 ovarian; MCF7 breast; SNB-75 CNS; SK-OV-3 ovarian; SK-MEL-5 melanoma; HOP-92 NSCLC; UO-31 renal; MALME-3M melanoma; NCI/ADR-RES ovarian; CCRF-CEM leukemia; BT-549 breast.
What all share (experiment): growth of human tumour cells (NCI), 48 h

`Cc1ccc(S(=O)(=O)n2c3c(c4ccccc42)CCN2C(=O)C(S(=O)(=O)c4ccccc4)=CCC32)cc1` (stereo unspecified): the TGI in the assay with UACC-257 melanoma is 0.319 µM; in the assay on MDA-MB-435, 0.445 µM; in the assay on HT29 colon, 0.48 µM; in the assay on MDA-MB-231 breast it was 0.409 µM; in the assay on NCI-H460 lung, 1.51 µM; in the assay on OVCAR-4 ovarian, 0.436 µM. The TGI is 1.91 µM in the assay on SNB-19 CNS; 0.715 µM with SW-620 colon; 0.332 µM in the assay on OVCAR-3 ovarian; 0.656 µM in the assay on MCF7 breast; 1.41 µM in the assay with SNB-75 CNS; 2.61 µM in the assay with SK-OV-3 ovarian. The TGI amounted to 0.337 µM in the assay with SK-MEL-5 melanoma, 0.315 µM with HOP-92 NSCLC, 0.384 µM with UO-31 renal and 0.463 µM in the assay with MALME-3M melanoma.

Consider `COc1ccc(N(CN2C(=O)CCC2C(=O)O)C(C)=O)cc1` (stereo unspecified), for which the TGI in the assay on UACC-257 melanoma, in the assay with MDA-MB-435, with HT29 colon, with MDA-MB-231 breast, in the assay with NCI-H460 lung and in the assay with NCI/ADR-RES ovarian was over 100 µM each time. Moreover, the TGI in the assay with OVCAR-4 ovarian, in the assay on SNB-19 CNS, with CCRF-CEM leukemia, in the assay on SW-620 colon, in the assay with OVCAR-3 ovarian and in the assay on MCF7 breast was over 100 µM throughout. The TGI in the assay with SNB-75 CNS, with SK-OV-3 ovarian, with SK-MEL-5 melanoma, in the assay on HOP-92 NSCLC, in the assay with UO-31 renal and in the assay with MALME-3M melanoma was over 100 µM throughout.

Turning to `CCOc1ccc(Nc2nc3c(s2)C(=O)c2ccccc2C3=O)cc1`, the TGI in the assay on UACC-257 melanoma came out at 27.4 µM; with MDA-MB-435 it was 3.25 µM; with MDA-MB-231 breast, 18.4 µM; in the assay with NCI-H460 lung, 38.9 µM; with OVCAR-4 ovarian it was 21.3 µM; in the assay with SNB-19 CNS, 30.1 µM. Besides, the TGI in the assay on CCRF-CEM leukemia is over 100 µM; with SW-620 colon, 15.2 µM; in the assay with OVCAR-3 ovarian, 12.9 µM; with MCF7 breast, 38.4 µM; with SNB-75 CNS, 24 µM; with SK-OV-3 ovarian, 34.3 µM. The TGI in the assay on SK-MEL-5 melanoma is 4.07 µM; in the assay on HOP-92 NSCLC it was 27.6 µM; in the assay with UO-31 renal, 28.4 µM; with MALME-3M melanoma it was 8.19 µM.

Take `Cc1ccc(O)c(C(c2ccc([N+](=O)[O-])cc2)c2cc(C)ccc2O)c1`: the TGI in the assay on UACC-257 melanoma was 28.4 µM; in the assay with MDA-MB-435 it was 28.5 µM; in the assay on HT29 colon, 30 µM; with MDA-MB-231 breast it was 26.2 µM; in the assay with NCI/ADR-RES ovarian, 28.7 µM; in the assay with OVCAR-4 ovarian, 23.8 µM. For the same compound, the TGI with SNB-19 CNS amounted to 26.2 µM; in the assay on CCRF-CEM leukemia, 56.9 µM; in the assay on SW-620 colon it was 32.1 µM; in the assay on OVCAR-3 ovarian it was 19.9 µM; with MCF7 breast, 20.3 µM; with SNB-75 CNS, 15.5 µM. In addition, the TGI in the assay with SK-OV-3 ovarian is 30 µM; with SK-MEL-5 melanoma, over 100 µM; with HOP-92 NSCLC, 28.7 µM; with UO-31 renal, 15.2 µM.

Take `CCOC(O)(NC(=O)C(C(F)(F)F)C(F)(F)F)C(F)(F)F` (stereo unspecified): the TGI in the assay with UACC-257 melanoma, in the assay with MDA-MB-435, with HT29 colon, with NCI/ADR-RES ovarian, with SNB-19 CNS and with CCRF-CEM leukemia was over 100 µM throughout. In addition, the TGI with SW-620 colon, in the assay with SNB-75 CNS, with SK-MEL-5 melanoma, in the assay with BT-549 breast and with UO-31 renal was over 100 µM each time.

For the compound `CC(C)(C)OC(=O)CC(NC(=O)OC(C)(C)C)C(=O)N[C@@H]1CCCC[C@H]1C(=O)OCc1ccccc1` (stereo partly specified), the TGI in the assay with UACC-257 melanoma is 89.4 µM; in the assay with MDA-MB-435, 92.2 µM; in the assay on HT29 colon, 59.1 µM; in the assay with MDA-MB-231 breast, over 100 µM; with NCI-H460 lung it was over 100 µM; in the assay with NCI/ADR-RES ovarian, over 100 µM. The TGI is over 100 µM with OVCAR-4 ovarian; 69.3 µM in the assay with SNB-19 CNS; 83.2 µM in the assay on CCRF-CEM leukemia; over 100 µM in the assay with SW-620 colon; over 100 µM in the assay on OVCAR-3 ovarian; 85.5 µM in the assay with MCF7 breast. The TGI in the assay with SNB-75 CNS was over 100 µM; in the assay on SK-OV-3 ovarian, 65 µM; with SK-MEL-5 melanoma, 24.5 µM; in the assay on HOP-92 NSCLC, over 100 µM; in the assay on UO-31 renal it was 53.8 µM; in the assay on MALME-3M melanoma, over 100 µM.

`CCOC(=O)[C@]12C(=C(c3ccccc3)O[C@H]3C=CCC[C@H]31)C(=O)C(=O)N2c1ccccc1`: the TGI in the assay with HT29 colon, with MDA-MB-231 breast, with NCI-H460 lung, with NCI/ADR-RES ovarian, in the assay with OVCAR-4 ovarian and with SNB-19 CNS was over 100 µM in each case. In addition, the TGI in the assay on OVCAR-3 ovarian, in the assay with MCF7 breast, with SK-OV-3 ovarian, in the assay on SK-MEL-5 melanoma, in the assay on UO-31 renal and in the assay with MALME-3M melanoma was over 100 µM throughout.

Take `O=[N+]([O-])c1ccc2[nH]nc(OCc3ccccn3)c2c1`: the TGI in the assay on UACC-257 melanoma, in the assay with MDA-MB-435, with HT29 colon, in the assay with MDA-MB-231 breast, with NCI-H460 lung and in the assay with NCI/ADR-RES ovarian was over 100 µM in each case. The TGI in the assay with OVCAR-4 ovarian, with SNB-19 CNS, in the assay with CCRF-CEM leukemia, in the assay with SW-620 colon, in the assay with OVCAR-3 ovarian and in the assay on SNB-75 CNS was over 100 µM throughout. The TGI in the assay with SK-OV-3 ovarian, in the assay with SK-MEL-5 melanoma, in the assay on HOP-92 NSCLC, in the assay with UO-31 renal and in the assay with MALME-3M melanoma was over 100 µM throughout.

As for `O=[N+]([O-])c1ccc(-c2nc3ccc([N+](=O)[O-])cc3[nH]2)cc1`, the TGI with UACC-257 melanoma is over 100 µM; with MDA-MB-435, 89.5 µM; with HT29 colon, over 100 µM; with NCI-H460 lung, 65.1 µM; in the assay on NCI/ADR-RES ovarian it was 57.6 µM; in the assay on OVCAR-4 ovarian it was over 100 µM. In addition, the TGI with SNB-19 CNS, in the assay on SW-620 colon, in the assay on OVCAR-3 ovarian, in the assay with MCF7 breast, with SNB-75 CNS and in the assay with SK-OV-3 ovarian was over 100 µM in each case. For the same compound, the TGI with SK-MEL-5 melanoma was determined as 44.9 µM; in the assay on BT-549 breast, 85.7 µM; with HOP-92 NSCLC, 59.4 µM; in the assay on UO-31 renal it was 61.4 µM; in the assay with MALME-3M melanoma, 84.2 µM.
